The subject of this assay is M. tuberculosis H37Rv growth inhibition. As to the kind of experiment: M. tuberculosis H37Rv growth inhibitors, H37Rv strain (AID 1626). Conditions: for IC90: measured here: IC90 against H37Rv; for CC50: measured here: Vero cell cytotoxicity.

Structures are written as SMILES.

For orientation: IC50 means the concentration at which inhibition is half-maximal. A word on the IC90: it is the concentration at which the effect reaches the 90% level. The CC50 is the concentration giving 50% cytotoxicity. Lower therefore signals greater toxicity to the cells.

On to `CCOc1ccc(NCC(=O)Nc2ccc(C)cc2C)cc1`, for which the IC50 is 62.4 µM and the IC90 was greater than 100 µM.

`O=C(OCC(=O)N1CCCCC1)c1cc2ccccc2cc1O`: the IC50 is 1.62 µM and the IC90 was determined as 10.6 µM.

In the case of `COc1ccc(C(=O)OCCNC(=O)c2c(Cl)nc3ccccn23)cc1`, the IC50 was 5.08 µM and the IC90 was 15.8 µM.

`Fc1ccc(-c2nnc(CSc3nnc(-c4cccs4)o3)o2)cc1` registered an IC90 greater than 100 µM.

On to `COc1ccc(CNCc2cn(-c3cccc(F)c3)nc2-c2ccc(C)o2)cc1`, for which the IC50 is 6.12 µM, the IC90 amounted to 10.5 µM and the CC50 is greater than 40 µM.

On to `COc1ccc2nc(NC(=O)c3cnccn3)sc2c1`, for which the CC50 was greater than 40 µM.

With `COc1cc2c(cc1NC(=O)CSc1nc3ccccc3[nH]1)oc1ccccc12`, the IC50 was 10.4 µM, the IC90 is greater than 100 µM and the CC50 was greater than 40 µM.

Take `Cc1ccccc1OCc1n(CC(=O)OC2CC(C)CCC2C(C)C)c2ccccc2[n+]1C` (stereo not given): the IC50 was 3.74 µM, the IC90 turned out to be 5.17 µM and the CC50 amounted to 24.4 µM.

With `FC(F)(F)c1ccc(CN2C[C@@H]3C(c4ccc(Cl)nc4)C4(c5cccnc5)CC3(C4)[C@H]2c2ccccc2)cc1` (stereo not given in full), the IC50 was 8.98 µM, the IC90 stood at 18 µM and the 50% cytotoxic concentration (CC50) is greater than 40 µM.

In the case of `O=C(Nc1nnc(SCc2ccc(F)cc2)s1)c1cnccn1`, the IC50 was 15.6 µM, the IC90 is greater than 100 µM and the CC50 was greater than 40 µM.

For `CCc1ccc(/C=c2\s/c(=C\C(=O)C(C)(C)C)[nH]c2=O)cc1`, the IC50 was 2.55 µM, the IC90 is 3.56 µM and the CC50 is greater than 40 µM.

`Brc1ccc(OCc2nc(-c3ccccn3)n[nH]2)cc1`: the CC50 stood at 10.6 µM.

In the case of `COc1cc(/C=C/C(=O)OCC(=O)NC(=O)NC23CC4CC(CC(C4)C2)C3)ccc1OCC#N`, the IC50 is 8.37 µM, the IC90 was greater than 100 µM and the CC50 was greater than 40 µM.

Take `O=C1C=C(Nc2ccccc2O)c2ccccc2C1=O`: the IC50 is 23.3 µM, the IC90 stood at 26.6 µM and the CC50 was 13.3 µM.

Turning to `O=C(CSCC(=O)Nc1ccc2ccccc2c1)NCc1ccccc1`, the IC50 is 35.4 µM and the IC90 was greater than 100 µM.

For `Cc1ccc2c(c1)c1ncnc(N3CCc4ccccc4C3)c1n2C`, the IC50 is 6.39 µM and the 90% effect concentration (IC90) stood at 11.2 µM.

On to `CCCCC(=O)c1ccc(O)cc1`, for which the IC50 is 15.2 µM and the IC90 is greater than 100 µM.

For `COCCOC(=O)c1c(C)oc2ccc(OC(=O)c3ccco3)cc12`, the IC50 is 7.1 µM and the IC90 is greater than 100 µM.

Turning to `Cc1ccc(NC(NC(=O)c2cccs2)C(Cl)(Cl)Cl)cc1C` (stereo not given), the IC50 was 24.3 µM, the IC90 was greater than 100 µM and the CC50 was greater than 40 µM.

As to `c1ccc2c(NC3C4CC5CC(C4)CC3C5)nc(N3CCOCC3)nc2c1` (stereo not given), the IC50 was 1.89 µM, the IC90 was found to be 3.08 µM and the CC50 was determined as 27.9 µM.

Regarding `c1ccc(CCNc2ccnc3cc4ccccc4cc23)cc1`, the IC50 is 1.5 µM, the IC90 was 1.69 µM and the CC50 is 8.57 µM.

For `Cc1cnc(NC(=O)c2cc3c(C)nn(-c4ccccc4)c3s2)s1`, the IC50 is 61 µM, the IC90 was greater than 100 µM and the CC50 is greater than 40 µM.

For `CC(C)(C)C(=O)Nc1ccc(-c2nc3ccccc3c(=O)o2)cc1`, the IC50 is 9.98 µM and the IC90 came to 20.2 µM.

In the case of `COc1ccc(CNCCC(c2ccc(F)cc2)c2ccc(OC(C)C)cc2)cc1OC` (stereo not given), the IC50 is 15.2 µM, the IC90 turned out to be 20.8 µM and the CC50 came out at 15.4 µM.

With `Cc1ccc(-n2cc(CN3CCC(CO)(Cc4cccc(C(F)(F)F)c4)CC3)cn2)cc1`, the IC50 is 4.31 µM, the IC90 stood at 7.09 µM and the CC50 came out at 23.7 µM.

In the case of `CCCCCCCn1c(=O)c(C(=O)Nc2cnccn2)c(O)c2ccccc21`, the IC50 was less than 0.195 µM, the IC90 is less than 0.195 µM and the CC50 amounted to 2.37 µM.

For `O=[N+]([O-])c1ccc(Sc2nc3ccccc3o2)c([N+](=O)[O-])c1`, the IC50 is 3.69 µM, the IC90 worked out at 5.16 µM and the CC50 was 8.69 µM.

On to `Cc1cc(N2C3CCC2CC(O)(c2ccc(F)cc2)C3)nc(-c2ccccc2)n1` (stereo not given), for which the IC50 was 31.6 µM, the IC90 is greater than 100 µM and the CC50 is greater than 40 µM.

With `O=C1c2cc([N+](=O)[O-])cc3cc([N+](=O)[O-])cc(c23)C(=O)N1c1ccccn1`, the IC50 is 2.91 µM, the concentration for an effect of 90% (IC90) worked out at 3.34 µM and the CC50 stood at 35.9 µM.

On to `NC1CCN(c2nc3c(cc2F)c(=O)c(C(=O)O)cn3-c2ccc(F)cc2F)C1` (stereo not given), for which the IC50 is 1.29 µM and the IC90 is 4.21 µM.

As to `CCCN(CC1CC1)C(=O)COC(=O)c1ccc2c(c1)C(=O)N(c1ccc(OCC)cc1)C2=O`, the IC90 is greater than 100 µM.

As to `CC(C)OC(=O)c1ccc(N)cc1`, the IC50 was 30.1 µM and the IC90 is greater than 100 µM.

For `Cc1cc(Oc2ccc(Cl)cc2)nc(-c2ccccn2)n1`, the IC50 is 14.5 µM, the concentration for an effect of 90% (IC90) is greater than 100 µM and the CC50 was found to be 21.1 µM.

As to `Cc1nc([N+](=O)[O-])c(Br)n1CC(=O)c1ccc(Cl)cc1`, the half-inhibitory concentration (IC50) was 16.8 µM, the IC90 amounted to 23.2 µM and the CC50 was determined as 30.6 µM.

On to `CCOC(=O)Cn1c2c(c(-c3ccccc3OC)cc1=O)CCCC2`, for which the IC50 was 21.1 µM and the IC90 is greater than 100 µM.

`Cc1[nH]n(-c2ccccc2)c(=O)c1N=Nc1nccs1`: the IC50 was 2.8 µM, the IC90 turned out to be 5.14 µM and the CC50 turned out to be 29.5 µM.

`CCOc1ccc2nc(NC(=O)c3cnc(C)cn3)sc2c1`: the IC50 is 4.76 µM, the IC90 was greater than 100 µM and the CC50 worked out at 40 µM.

`COc1cc(OC)c2c(-c3ccccc3)cc(=O)oc2c1C(CCN1CCCCC1)c1ccc2c(c1)OCO2` (stereo not given): the IC50 is 9.18 µM, the IC90 is 12.8 µM and the CC50 amounted to 13.6 µM.

`COc1cc(CNC23CC4CC(CC(C4)C2)C3)ccc1OCc1ccccc1`: the IC50 is 2.94 µM, the IC90 came out at 3.35 µM and the CC50 is greater than 40 µM.

As to `N=C1S/C(=C\c2ccc(-c3cccc(Cl)c3)o2)C(=O)N1c1nccs1`, the IC50 was less than 0.195 µM, the IC90 amounted to 13.9 µM and the CC50 was determined as 5.77 µM.

For `Cc1cc(NC(=O)c2ccccc2)n(-c2nc3ccccc3[nH]2)n1`, the IC50 is 60.4 µM, the IC90 was greater than 100 µM and the CC50 was 27.9 µM.

`Cn1c(C(C#N)C(=O)c2sc3ccccc3c2Cl)nc2ccccc21` (stereo not given) gave a CC50 greater than 40 µM.

`NC1=NC[C@H](Cc2ccc(O)cc2)N1CCCCC1CCCCC1`: the IC50 is 5.33 µM and the IC90 came to 7.7 µM.

Take `CC(=O)n1cc(N(C(=O)CCl)c2ccc([N+](=O)[O-])cc2)c2ccccc21`: the IC50 was 14 µM, the 90% effect concentration (IC90) was 30.3 µM and the CC50 was 14.7 µM.

Consider `C=CCSc1nnc(-c2ccc([N+](=O)[O-])cc2)o1`, for which the IC50 was less than 0.195 µM and the IC90 was 0.843 µM.

With `COC(=O)CCCn1c(C)cc(C(=O)CCl)c1C`, the IC50 was 5.45 µM, the IC90 worked out at 18.4 µM and the CC50 came out at 21.1 µM.

Take `O=C(Nc1ccccc1OC(=O)c1ccc(Cl)cc1)c1ccc(Cl)cc1`: the IC50 was 12 µM and the IC90 amounted to 18.6 µM.

Take `CCC(C)NC(=O)c1c(N)n(/N=C/c2ccccn2)c2nc3ccccc3nc12` (stereo not given): the IC50 was 5.18 µM, the IC90 amounted to 7.46 µM and the CC50 was greater than 40 µM.

For `COc1cc(-c2cc(C(=O)Nc3nc4ccccc4s3)c3ccccc3n2)cc(OC)c1OC`, the IC90 is greater than 100 µM and the CC50 was greater than 40 µM.

Consider `Clc1cccc(-c2nc(NCCN3CCOCC3)c3ccccc3n2)c1`, for which the IC50 was 12.6 µM, the IC90 is 17.6 µM and the CC50 was greater than 40 µM.

On to `Cc1cccc(C=Nc2ccc3c(c2)oc2ccccc23)c1O`, for which the IC50 was 1.11 µM and the IC90 is greater than 100 µM.

For `O=S(=O)(Nc1nc2ccccc2nc1Nc1ccc(N2CCOCC2)cc1)c1cc(Cl)ccc1Cl`, the IC90 is greater than 100 µM and the CC50 was 22.3 µM.

With `CCOC(=O)N1C/C(=C\c2ccccc2)C(=O)/C(=C/c2ccccc2)C1`, the IC50 was 2.11 µM, the IC90 was greater than 100 µM and the CC50 was determined as 19.3 µM.

With `Cc1ccc2nc(-c3ccccn3)c(Nc3ccccc3C)n2c1`, the IC50 is 1.52 µM, the IC90 turned out to be 2.24 µM and the CC50 was determined as 3.42 µM.

In the case of `N#Cc1ccc(C(=O)Nc2nnc(-c3ccco3)o2)cc1`, the IC50 is 7.95 µM, the IC90 is greater than 100 µM and the half-maximal cytotoxic concentration (CC50) is greater than 40 µM.

Regarding `COc1cc(/C=C2\COC/C(=C\c3ccc(O)c(OC)c3)C2=O)ccc1O`, the IC50 is 5.7 µM, the IC90 worked out at 10.8 µM and the CC50 came to 21.8 µM.

As to `O=c1[nH][nH]cc1C=Nc1ccc(Oc2ccccc2)cc1`, the IC50 was 15.4 µM and the IC90 is greater than 100 µM.

On to `O=Cc1ccc(O)c2ncccc12`, for which the IC50 was 0.378 µM, the IC90 is 0.549 µM and the CC50 is 7.88 µM.

Consider `O=C(NCc1cn(-c2ccccc2)nc1-c1ccccc1)c1cc([N+](=O)[O-])cc([N+](=O)[O-])c1`, for which the IC50 was 0.591 µM, the IC90 was 0.847 µM and the CC50 was greater than 40 µM.

`CCCn1c(NC(=O)c2ccco2)nc2ccccc21`: the IC50 is 5.87 µM, the IC90 worked out at 18.6 µM and the CC50 was greater than 40 µM.

Consider `COc1cc2c(cc1NCc1ccc3c(c1)OCO3)oc1ccccc12`, for which the IC50 was 89.1 µM and the IC90 is greater than 100 µM.

For the molecule `O=C(Nc1ccc(N2CCN(C(=O)c3ccc(Cl)cc3)CC2)cc1)c1ccc([N+](=O)[O-])o1`, the IC50 was less than 0.195 µM, the IC90 was less than 0.195 µM and the CC50 was found to be 0.417 µM.

On to `COc1cc(-c2ccc3oc(-c4ccsc4)c(C#CC4(O)CCCCC4)c3c2)cc(OC)c1OC`, for which the IC50 was 3.77 µM, the IC90 is greater than 100 µM and the CC50 is greater than 40 µM.

Source of the values: PubChem BioAssay AID1626 (SRMLSC, 2009).
